{"source": "EPA's ToxRefDB 2", "key": {"rat [1]": {"test_system": "rat", "details": "Subchronic oral toxicity in rodents, sprague dawley, Feed, dose end: 13 week, group: systemic"}, "rat [2]": {"test_system": "rat", "details": "Combined chronic toxicity/carcinogenicity; sprague dawley; Oral; Feed; dose end: 104 week; group: systemic; systemic / in life observation / body weight / body weight + systemic / in life observation / body weight / body weight gain + systemic / in…"}, "mouse [3]": {"test_system": "mouse", "details": "Carcinogenicity; cd1; Oral; Feed; dose end: 78 week; group: systemic; systemic / in life observation / body weight / body weight + systemic / in life observation / body weight / body weight gain"}, "rat [4]": {"test_system": "rat", "details": "Multigenerational reproductive toxicity study, sprague dawley, Oral, Feed, dose end: 2 generation, group: parental"}, "rat [5]": {"test_system": "rat", "details": "Combined chronic toxicity/carcinogenicity, sprague dawley, Oral, Feed, dose end: 104 week, group: systemic"}, "rat [6]": {"test_system": "rat", "details": "Prenatal developmental toxicity study, sprague dawley, Oral, Gavage/Intubation, dose end: 17 GD"}, "rat [7]": {"test_system": "rat", "details": "Sub-acute repeat dose toxicity, sprague dawley, Oral, Gavage/Intubation, dose end: 4 week, group: systemic"}, "rabbit": {"test_system": "rabbit", "details": "Prenatal developmental toxicity study, himalayan, Oral, Gavage/Intubation, dose end: 18 GD, group: maternal"}, "mouse [8]": {"test_system": "mouse", "details": "Subchronic oral toxicity in rodents, b6c3f1, Gavage/Intubation, dose end: 94 day, group: systemic, systemic / pathology microscopic / liver / vacuolization cytoplasmic + systemic / clinical chemistry / alkaline phosphatase (alp/alk) / …"}, "[9]": {"details": "systemic / in life observation / body weight / body weight + systemic / in life observation / body weight / body weight gain"}, "[10]": {"details": "systemic / in life observation / body weight / body weight + systemic / in life observation / body weight / body weight gain + systemic / in…"}, "[11]": {"details": "systemic / in life observation / body weight / body weight gain + systemic / in life observation / body weight / body weight"}, "[12]": {"details": "group: developmental, developmental / developmental malformation / general / crown-rump length + systemic / in life observation / body weight / fetal weight"}, "[13]": {"details": "group: maternal, reproductive / reproductive performance / resorptions / resorptions + systemic / in life observation / body weight / body weight + systemic…"}, "[14]": {"details": "systemic / hematology / mean corpuscular (cell) volume (mcv) / mean corpuscular (cell) volume (mcv) + systemic / pathology microscopic / …"}, "[15]": {"details": "systemic / in life observation / body weight / body weight gain + systemic / in life observation / food consumption / food consumption"}}, "data": [{"compound": "CCCCCCCCCCCC[N+](C)(C)Cc1ccccc1.[Cl-]", "values": [{"measurement": "LOAEL", "setting": "rat [1]; [9]", "result": 62, "unit": "mg/kg/day"}, {"measurement": "NEL", "setting": "rat [1]; [10]", "result": 6.3, "unit": "mg/kg/day"}, {"measurement": "NOAEL", "setting": "rat [1]; [10]", "result": 31.2, "unit": "mg/kg/day"}, {"measurement": "LEL", "setting": "rat [1]; systemic / in life observation / food consumption / food consumption + systemic / pathology gross / stomach / discolored", "result": 31.2, "unit": "mg/kg/day"}, {"measurement": "LEL", "setting": "rat [2]", "result": 88, "unit": "mg/kg/day"}, {"measurement": "LOAEL", "setting": "rat [2]", "result": 88, "unit": "mg/kg/day"}, {"measurement": "NEL", "setting": "rat [2]", "result": 44, "unit": "mg/kg/day"}, {"measurement": "NOAEL", "setting": "rat [2]", "result": 44, "unit": "mg/kg/day"}, {"measurement": "LEL", "setting": "mouse [3]", "result": 229, "unit": "mg/kg/day"}, {"measurement": "LOAEL", "setting": "mouse [3]", "result": 229, "unit": "mg/kg/day"}, {"measurement": "NEL", "setting": "mouse [3]", "result": 73.4, "unit": "mg/kg/day"}, {"measurement": "NOAEL", "setting": "mouse [3]", "result": 73.4, "unit": "mg/kg/day"}]}, {"compound": "COC(=O)c1ccccc1S(=O)(=O)NC(=O)Nc1nc(C)nc(OC)n1", "note": "[Metsulfuron-methyl]", "values": [{"measurement": "LOAEL", "setting": "rat [4]; systemic / in life observation / body weight / body weight gain", "result": 250, "unit": "mg/kg/day"}, {"measurement": "LEL", "setting": "rat [4]; [11]", "result": 250, "unit": "mg/kg/day"}, {"measurement": "NEL", "setting": "rat [4]; [11]", "result": 25, "unit": "mg/kg/day"}, {"measurement": "NOAEL", "setting": "rat [4]; [11]", "result": 25, "unit": "mg/kg/day"}, {"measurement": "LOAEL", "setting": "rat [5]; [9]", "result": 250, "unit": "mg/kg/day"}, {"measurement": "NEL", "setting": "rat [5]; [9]", "result": 1.25, "unit": "mg/kg/day"}, {"measurement": "NOAEL", "setting": "rat [5]; [9]", "result": 125, "unit": "mg/kg/day"}, {"measurement": "LEL", "setting": "rat [5]; systemic / in life observation / body weight / body weight gain + systemic / in life observation / body weight / body weight + systemic / …", "result": 25, "unit": "mg/kg/day"}]}, {"compound": "CCN(CC)C(=O)c1cc(S(=O)(=O)Cc2ccccc2)c(N2CCC(c3ccccc3)CC2)cc1N(CC)CCN(C)C", "note": "[HMR1171]", "values": [{"measurement": "LEL", "setting": "rat [6]; [12]", "result": 60, "unit": "mg/kg/day"}, {"measurement": "LOAEL", "setting": "rat [6]; [12]", "result": 60, "unit": "mg/kg/day"}, {"measurement": "NEL", "setting": "rat [6]; [12]", "result": 10, "unit": "mg/kg/day"}, {"measurement": "NOAEL", "setting": "rat [6]; [12]", "result": 10, "unit": "mg/kg/day"}, {"measurement": "LEL", "setting": "rat [6]; [13]", "result": 60, "unit": "mg/kg/day"}, {"measurement": "LOAEL", "setting": "rat [6]; [13]", "result": 60, "unit": "mg/kg/day"}, {"measurement": "NEL", "setting": "rat [6]; [13]", "result": 10, "unit": "mg/kg/day"}, {"measurement": "NOAEL", "setting": "rat [6]; [13]", "result": 10, "unit": "mg/kg/day"}, {"measurement": "NEL", "setting": "rat [7]; systemic / clinical chemistry / alkaline phosphatase (alp/alk) / alkaline phosphatase (alp/alk) + systemic / clinical chemistry / …", "result": 5, "unit": "mg/kg/day"}, {"measurement": "LEL", "setting": "rat [7]; [14]", "result": 20, "unit": "mg/kg/day"}, {"measurement": "LOAEL", "setting": "rat [7]; [14]", "result": 20, "unit": "mg/kg/day"}, {"measurement": "NOAEL", "setting": "rat [7]; [14]", "result": 5, "unit": "mg/kg/day"}, {"measurement": "LOAEL", "setting": "rabbit; [15]", "result": "> 240", "unit": "mg/kg/day"}, {"measurement": "NEL", "setting": "rabbit; [15]", "result": 60, "unit": "mg/kg/day"}, {"measurement": "NOAEL", "setting": "rabbit; [15]", "result": "≥ 240", "unit": "mg/kg/day"}, {"measurement": "LEL", "setting": "rabbit; systemic / in life observation / food consumption / food consumption", "result": 120, "unit": "mg/kg/day"}]}, {"compound": "CO[C@H]1/C=C/O[C@@]2(C)Oc3c(C)c(O)c4c(O)c(c(/C=N/N5CCN(C)CC5)c(O)c4c3C2=O)NC(=O)/C(C)=C\\C=C\\[C@H](C)[C@H](O)[C@@H](C)[C@@H](O)[C@@H](C)[C@H](OC(C)=O)[C@@H]1C", "note": "[Rifampicin]", "values": [{"measurement": "LEL", "setting": "mouse [8]", "result": 100, "unit": "mg/kg/day"}, {"measurement": "LOAEL", "setting": "mouse [8]", "result": 100, "unit": "mg/kg/day"}, {"measurement": "NEL", "setting": "mouse [8]", "result": "< 100", "unit": "mg/kg/day"}, {"measurement": "NOAEL", "setting": "mouse [8]", "result": "< 100", "unit": "mg/kg/day"}]}]}
